Measured values reported in article PMC9326219, “Design and Synthesis of 1-O- and 6′-C-Modified Heparan Sulfate Trisaccharides as Human Endo-6-O-Sulfatase 1 Inhibitors” (Frontiers in Chemistry, 2022).

Key:
[1] = target: T1, human endo-6-O-sulfatase 1 (Sulf-1) (Homo sapiens, UniProt Q8IWU6); test: fluorescent 4-MUS hydrolysis assay with purified human Sulf-1; assay type: biochemical
T1 construct: gene SULF1

[2] = target: T1, human endo-6-O-sulfatase 1 (Sulf-1); test: fluorescent 4-MUS hydrolysis assay with purified human Sulf-1; kinetic fit to competitive model (IC50 […]); assay type: biochemical

Compound | IC50 [1] | Ki [2]
CO[C@@H]1O[C@@H](C(=O)O)[C@@H](O[C@H]2O[C@H](CNS(=O)(=O)O)[C@@H](O[C@@H]3O[C@@H](C(=O)O)[C@@H](O)[C@H](O)[C@H]3OS(=O)(=O)O)[C@H](O)[C@H]2NS(=O)(=O)O)[C@H](O)[C@H]1OS(=O)(=O)O [compound 6, IdoA2OS-GlcNS6NS-IdoA2OS-OMe] | 4.6 µM | 
CO[C@@H]1O[C@@H](C(=O)O)[C@@H](O[C@H]2O[C@H](COS(N)(=O)=O)[C@@H](O[C@@H]3O[C@@H](C(=O)O)[C@@H](O)[C@H](O)[C@H]3OS(=O)(=O)O)[C@H](O)[C@H]2NS(=O)(=O)O)[C@H](O)[C@H]1OS(=O)(=O)O [compound 5, IdoA2OS-GlcNS6OSO2NH2-IdoA2OS-OMe] |  | 0.14 µM
